These results are taken from PMC9739180, “Discovery of a Flavonoid FM04 as a Potent Inhibitor to Reverse P-Glycoprotein-Mediated Drug Resistance in Xenografts and Improve Oral Bioavailability of Paclitaxel” (International Journal of Molecular Sciences, 2022).

Read-outs that look alike come from different tables or passages of the source.

Series [1] addresses T1, P-gp (Homo sapiens, UniProt P08183). The experiment in a line: Reversal of P-gp-mediated MDR in LCC6MDR cells (MTS cell viability, 5 days). As for the experimental part: To each well of a 96-well plate, 6500 cells of LCC6MDR were seeded in 180 μL supplemented medium. A 10 µL compound (FD18, 14a, FM04 or FM327) at different concentrations (0, 62.5, 125, 250, 500 and 1000 nM) was added to the well. […] The final volume in each well was 200 µL and the 96-well plate was incubated at 37 °C for 5 days. The cell viability was determined using the MTS assay as reported previously. The % of cell survival, IC50 of anticancer drugs towards the LCC6MDR and the EC50 of modulators were analyzed using nonlinear regression in Prism 5.0 (Prism version 5.0, GraphPad software, San Diego, CA, USA).

Series [2] can be described thus: In vivo monitoring of FD18 and its metabolites in plasma after I.V. FD18. Details: species or system SD rats. Particulars: after FD18 5 mg/kg I.V.; for AUC(0-t) / Cmax / Tmax: Sprague-Dawley, rat, iv. Here is the method:
Figure 3 Proposed metabolism pathway of FD18 and its metabolites formed in vivo. (A) metabolism study of FD18 was conducted on human liver microsomes (HLM) and rat liver microsomes (RLM) in vitro. Chemical structure of the 3 metabolites was predicted by LC/QTOF-MS/MS and confirmed by the synthetic compounds (Figure 2E–J). The pathways for biotransformation of FD18 into FM04 was proposed. (B) plasma concentration profile of FD18 and the in vivo formation of metabolites M1, M2 and M3. After I.V. injection of FD18 (5 mg/kg) into […], plasma was collected at 10, 30, 60, 120, 240, 420 and 600 min, respectively. The concentration of FD18 at each time point was determined by UPLC-MS/MS. Its plasma concentration was further quantified with peak area ratio of FD18 against D7-18. […] In vivo formation of metabolites M1, M2 and M3 were monitored and quantified by UPLC-MS/MS with corresponding calibration curve of 14a, FM04 and FM327. Pharmacokinetic parameter AUC was calculated by the pharmacokinetic software-Summit® PK solutions 2.0 (Summit Research Service, Ashland, Wilmington, DE, USA).
FD18 stock solution was freshly prepared in 33% Cremophor EL, 33% ethanol and 33% saline at a concentration of 9.5 mg/mL. FD18 stock solution was then diluted with saline to form a 4 mg/mL working solution for animal injection. SD rats were intravenously (I.V.) administered with FD18 at 5 mg/kg (n = 3). Blood samples (approx. 300 μL) were taken via jugular vein at 10, 30, 60, 120, 240 and 420 min post-administration. Blood samples were centrifuged at 16,100× g for 10 min to obtain plasma. Plasma samples (50 µL) were spiked with 15 μL of internal standard (IS) (D7-NBn, 10 μg/mL). Two hundred microliter of methanol was added for protein precipitation. Samples were centrifuged at 16,100× g for 10 min prior to filtering by 0.22 μm syringe filter for UPLC-MSMS analysis.
The UPLC-MS/MS system consists of an Agilent 1260 infinity UPLC interfaced with a triple quadrupole mass spectrometer (Agilent 6460) equipped with an electrospray ionization source in positive mode. Zorbax Eclipse XDB-C8 (4.6 × 150 mm, 5 µM) was used for separation. The mobile phase for chromatographic separation consisted of methanol + 0.1% formic acid (solvent B) and Milli-Q water + 0.1% formic acid (solvent A) with gradient elution of 30% solvent B to 100% solvent B in 5 min. The elution condition was allowed for equilibrium from the 7th min onward. The analysis time for each injection was 13 min. The flow rate was 0.4 mL/min. The synthetic compound D7-NBn, the deuterated benzyl form of FD18, was used as the internal standard (IS) for the quantification of the three metabolites. Multiple reaction monitoring (MRM) was set to monitor the transitions of D7-NBn [M+H]^+, FD18 [M+H]^+, M1 [M+H]^+, M2 [M+H]^+ and M3 [M+H]^+ at 731.01 > 98.1 m/z, 724.01 > 91.1 m/z, 634.01 > 114 m/z, 416.01 > 91.1 m/z and 327.01 > 239 m/z, respectively. The coefficient of determination (R^2) for 14a, FM04 and FM327 were above 0.99. The dynamic range for the metabolites in the current setting is 78 ng/mL to 2.44 ng/mL.

For series [3], the target named is T2, MRP1 (Homo sapiens, UniProt P33527).
T2 construct: expressed in transfected cells; host or cells: 2008/MRP1 (human ovarian cancer)
T2 sequence (P33527 whole entry): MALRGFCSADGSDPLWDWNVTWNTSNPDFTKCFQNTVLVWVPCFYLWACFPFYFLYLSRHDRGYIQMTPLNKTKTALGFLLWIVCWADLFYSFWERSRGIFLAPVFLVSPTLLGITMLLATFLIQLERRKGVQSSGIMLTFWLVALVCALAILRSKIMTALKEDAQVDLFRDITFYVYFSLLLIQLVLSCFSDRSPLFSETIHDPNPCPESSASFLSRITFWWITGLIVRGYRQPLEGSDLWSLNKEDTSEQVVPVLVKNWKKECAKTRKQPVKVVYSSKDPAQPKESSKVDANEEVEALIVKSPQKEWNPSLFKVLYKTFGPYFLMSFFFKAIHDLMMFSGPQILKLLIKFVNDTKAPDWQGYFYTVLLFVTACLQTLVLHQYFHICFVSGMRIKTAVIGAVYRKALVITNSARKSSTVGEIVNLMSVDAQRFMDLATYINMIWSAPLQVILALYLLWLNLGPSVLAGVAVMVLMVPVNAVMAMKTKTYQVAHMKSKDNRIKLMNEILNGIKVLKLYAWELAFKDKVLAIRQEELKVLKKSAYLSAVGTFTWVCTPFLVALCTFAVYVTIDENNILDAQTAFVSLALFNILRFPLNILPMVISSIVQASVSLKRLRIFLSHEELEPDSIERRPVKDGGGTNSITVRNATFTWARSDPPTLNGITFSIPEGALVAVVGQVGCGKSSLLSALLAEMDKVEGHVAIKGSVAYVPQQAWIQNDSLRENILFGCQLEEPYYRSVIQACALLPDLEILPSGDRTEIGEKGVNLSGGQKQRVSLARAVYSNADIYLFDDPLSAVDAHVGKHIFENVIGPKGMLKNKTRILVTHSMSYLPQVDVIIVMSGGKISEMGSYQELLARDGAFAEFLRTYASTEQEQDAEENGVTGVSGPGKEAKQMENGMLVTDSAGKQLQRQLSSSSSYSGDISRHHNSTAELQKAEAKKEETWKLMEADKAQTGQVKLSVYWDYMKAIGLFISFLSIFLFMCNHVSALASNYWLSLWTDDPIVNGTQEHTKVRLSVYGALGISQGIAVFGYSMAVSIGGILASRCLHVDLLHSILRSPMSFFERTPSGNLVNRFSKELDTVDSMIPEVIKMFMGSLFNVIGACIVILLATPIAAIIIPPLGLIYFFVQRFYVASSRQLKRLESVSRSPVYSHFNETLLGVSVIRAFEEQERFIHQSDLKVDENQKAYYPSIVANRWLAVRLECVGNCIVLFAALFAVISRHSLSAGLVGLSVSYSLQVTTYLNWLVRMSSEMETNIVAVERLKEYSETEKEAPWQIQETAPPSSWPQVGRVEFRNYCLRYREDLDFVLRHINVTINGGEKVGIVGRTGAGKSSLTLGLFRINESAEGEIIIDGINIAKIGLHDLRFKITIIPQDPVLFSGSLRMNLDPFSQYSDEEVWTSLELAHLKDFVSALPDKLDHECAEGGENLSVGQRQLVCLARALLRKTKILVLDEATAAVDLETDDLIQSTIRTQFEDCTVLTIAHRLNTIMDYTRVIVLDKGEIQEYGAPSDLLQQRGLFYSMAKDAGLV
Briefly: MRP1-modulating activity in 2008/MRP1 cells (MTS). Particulars: no modulator; read-out: IC50 of DOX in 2008/MRP1, DMSO. Type of series: cell-based. As for the experimental part: (§1) The final volume in each well of the 96-well plate was 200 μL. The plate was then incubated for 5 days at 37 °C. The cell viability was determined using an MTS assay as reported previously.

The test system of series [4] is LCC6 cells. The experiment in a line: IC50 of anticancer drugs in wild-type LCC6 with or without FM04. Type of series: cell-based, human. The note with it: for IC50: Homo sapiens; for RF, LCC6 + DMSO: IC50 in LCC6MDR without FM04 / IC50 in LCC6; for RF, LCC6 + 1 μM FM04: IC50 in LCC6MDR without FM04 / IC50 in LCC6 with FM04. An excerpt:
Table S1. IC50 of anticancer drugs in LCC6 and LCC6MDR and P-gp modulating activity of FM04.
fold): IC50 of an anticancer drug of LCC6MDR without FM04/IC50 of an anticancer of LCC6 with or without
FM04 or LCC6MDR with FM04. N = 2 - 8 independent experiment. The IC50 values were presented as mean ±
standard error mean. /: not determined.

Series [5] deals with L929. Details: method as in earlier work. Particulars: mouse fibroblast cell line; read-out: Cytotoxicity IC50, L929; cited from earlier work.
The target in series [6] is T1, P-gp. Briefly: Intracellular DOX accumulation assay in LCC6MDR cells.
Series [7] deals with T1, P-gp. The arrangement: expressed in transfected cells; host or cells: MDA435/LCC6MDR (human melanoma); method as in PMID 22320402. Particulars: LCC6MDR; cited from earlier work.
The target in series [8] is T3, BCRP (Homo sapiens, UniProt Q9UNQ0).
T3 construct: expressed in transfected cells; host or cells: HEK293/R2
T3 sequence (Q9UNQ0 1-655): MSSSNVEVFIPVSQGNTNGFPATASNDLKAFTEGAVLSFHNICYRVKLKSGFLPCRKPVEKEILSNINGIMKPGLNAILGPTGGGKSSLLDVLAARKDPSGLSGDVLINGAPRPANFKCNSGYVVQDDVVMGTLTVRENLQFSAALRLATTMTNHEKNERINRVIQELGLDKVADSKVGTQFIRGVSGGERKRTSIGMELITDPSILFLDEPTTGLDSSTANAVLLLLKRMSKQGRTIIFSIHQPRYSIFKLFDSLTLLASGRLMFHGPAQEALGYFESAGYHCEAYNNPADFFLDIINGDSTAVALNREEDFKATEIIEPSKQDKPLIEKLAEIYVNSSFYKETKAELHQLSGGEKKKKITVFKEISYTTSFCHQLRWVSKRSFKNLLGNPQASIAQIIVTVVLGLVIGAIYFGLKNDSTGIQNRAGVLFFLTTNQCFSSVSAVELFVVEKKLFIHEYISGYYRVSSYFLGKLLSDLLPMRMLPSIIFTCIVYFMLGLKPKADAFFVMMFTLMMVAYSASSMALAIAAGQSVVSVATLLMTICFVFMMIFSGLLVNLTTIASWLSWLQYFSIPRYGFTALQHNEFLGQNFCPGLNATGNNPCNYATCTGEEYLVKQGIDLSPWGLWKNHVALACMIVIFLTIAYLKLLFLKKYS
Briefly: BCRP-modulating activity in HEK293/R2 cells (MTS). Type of series: cell-based. Particulars: no modulator; read-out: IC50 of Topotecan in HEK293/R2, DMSO. Here is the method:
as §1

The target of series [9] is T1, P-gp. The arrangement: expressed in transfected cells; host or cells: MDA435/LCC6MDR (human melanoma). Particulars: read-out: EC50 for reversing PTX resistance; cited from earlier work.
For series [10] the following is noted: oral co-administration; cited from earlier work.
[11] abbreviates: LCC-6, wild-type LCC6, no modulator, read-out: IC50 of anticancer drug, LCC6 + DMSO.

T1 sequence (P08183 whole entry): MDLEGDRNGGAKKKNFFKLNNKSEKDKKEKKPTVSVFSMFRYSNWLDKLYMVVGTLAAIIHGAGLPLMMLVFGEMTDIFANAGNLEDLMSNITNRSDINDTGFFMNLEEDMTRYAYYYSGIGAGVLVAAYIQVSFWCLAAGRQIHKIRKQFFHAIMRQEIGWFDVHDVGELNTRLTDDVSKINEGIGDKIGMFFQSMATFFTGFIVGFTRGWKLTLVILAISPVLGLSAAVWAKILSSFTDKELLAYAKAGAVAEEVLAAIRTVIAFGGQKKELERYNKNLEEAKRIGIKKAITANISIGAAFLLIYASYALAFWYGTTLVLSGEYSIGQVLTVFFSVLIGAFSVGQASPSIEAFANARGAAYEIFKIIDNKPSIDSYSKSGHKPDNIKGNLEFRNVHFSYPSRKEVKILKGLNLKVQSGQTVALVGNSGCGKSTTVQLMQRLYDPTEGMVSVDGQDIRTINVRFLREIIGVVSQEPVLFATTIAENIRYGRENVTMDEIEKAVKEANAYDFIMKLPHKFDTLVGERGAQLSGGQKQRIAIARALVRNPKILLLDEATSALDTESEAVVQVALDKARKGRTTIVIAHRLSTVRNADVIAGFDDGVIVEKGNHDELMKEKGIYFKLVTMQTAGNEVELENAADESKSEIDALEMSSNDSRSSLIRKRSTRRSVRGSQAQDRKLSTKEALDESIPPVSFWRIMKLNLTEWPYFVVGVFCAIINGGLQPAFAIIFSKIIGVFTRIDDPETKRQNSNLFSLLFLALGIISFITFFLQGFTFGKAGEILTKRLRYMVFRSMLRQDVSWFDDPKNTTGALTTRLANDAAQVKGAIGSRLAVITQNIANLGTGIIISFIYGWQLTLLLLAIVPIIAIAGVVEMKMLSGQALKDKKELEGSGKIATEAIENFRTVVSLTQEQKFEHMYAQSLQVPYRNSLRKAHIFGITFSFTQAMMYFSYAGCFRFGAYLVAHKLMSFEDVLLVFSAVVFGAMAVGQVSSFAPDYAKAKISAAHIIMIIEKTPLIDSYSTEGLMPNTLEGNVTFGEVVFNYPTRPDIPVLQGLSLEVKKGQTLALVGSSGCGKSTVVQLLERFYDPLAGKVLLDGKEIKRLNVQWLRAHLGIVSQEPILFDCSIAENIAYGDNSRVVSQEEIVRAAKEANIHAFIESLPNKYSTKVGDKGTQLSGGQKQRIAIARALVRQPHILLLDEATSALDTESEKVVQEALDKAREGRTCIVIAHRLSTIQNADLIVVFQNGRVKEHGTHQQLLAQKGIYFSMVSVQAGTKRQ

Turning to `O=c1cc(-c2ccc(OCCOCCNCCOCCOc3ccc(-c4cc(=O)c5ccccc5o4)cc3)cc2)oc2ccccc12` [14a, 1,13-Bis[4′-(4H-chromen-4-on-2-yl)phenyl]-1,4,10,13-tetraoxa-7-azatridecane], the “fold lower activity than FD18 in reversing PTX resistance” value in series [1] amounted to 2.1 fold. Moreover, in series [2], the exposure AUC(0-t) is 78.9 ng·h/mL, the maximum concentration (Cmax) was found to be 18 ng/mL and the Tmax was 50 min. The “Normalized AUC (systemic exposure relative to FD18)” value in [2] (listed as M1) stood at 12%.

For the compound `COc1cccc2c1C(=O)c1c(O)c3c(c(O)c1C2=O)C[C@@](O)(C(=O)CO)C[C@@H]3O[C@H]1C[C@H](N)[C@H](O)[C@H](C)O1` [DOX, doxorubicin], the “RF, LCC6MDR + 1 μM FM04” value in [1] worked out at 25.2. In series [1], the “RF, LCC6MDR + DMSO” value is 1.0. The IC50 is 616 ± 54.2 nM in series [3] and 27 ± 4.6 nM in series [4] (setting [11]). For the same compound, the “RF, LCC6 + DMSO” value in series [4] came to 38.6.

As for `COc1cccc2c1C(=O)c1c(O)c3c(c(O)c1C2=O)C[C@@](O)(C(C)=O)C[C@@H]3O[C@H]1C[C@H](N)[C@H](O)[C@H](C)O1` [Daunorubicin, daunorubicin], in series [1], the “RF, LCC6MDR + 1 μM FM04” value turned out to be 6.3 and the “RF, LCC6MDR + DMSO” value came to 1.0. Moreover, the IC50 in [4] (LCC-6, read-out: IC50 of anticancer drug, LCC6 + DMSO) worked out at 22.1 ± 2.2 nM. In [4], the “RF, LCC6 + DMSO” value is 60.5.

For the compound `O=c1cc(-c2ccc(OCCOCCN(CCOCCOc3ccc(-c4cc(=O)c5ccccc5o4)cc3)Cc3ccccc3)cc2)oc2ccccc12` [FD18], the “RF (relative-fold)” value in series [1] was more than 68. Besides, the half-maximal effective concentration (EC50) is 116 to 148 nM in [1] (EC50 for P-gp modulation, range over PTX reversal and DOX accumulation in LCC6MDR); 116 nM in series [6]. Further, the AUC(0-t) in [2] is 682 ng·h/mL. The IC50 in series [5] was 85000 ± 5000 nM. In addition, the “Transport substrate of P-gp” value in series [7] is “substrate of P-gp”.

As for `O=c1cc(-c2ccc(OCCOCCO)cc2)oc2ccccc12` [FM327, 2-(4-(2-(2-hydroxyethoxy)ethoxy)phenyl)-4H-chromen-4-one], in series [1] (EC50 needed for reversing MDR in LCC6MDR cells: PTX, LCC6MDR, PTX resistance), the EC50 is more than 1000 nM. Besides, in series [2], the AUC(0-t) is 49.1 ng·h/mL, the peak concentration (Cmax) was found to be 21 ng/mL and the Tmax was 50 min. Also, the “Normalized AUC (systemic exposure relative to FD18)” value in series [2] (listed as M3) is given as 7%.

With `O=C1c2c(O)ccc(O)c2C(=O)c2c(NCCNCCO)ccc(NCCNCCO)c21` [Mitoxantrone, mitoxantrone], in [1], the “RF, LCC6MDR + 1 μM FM04” value is 17.3 and the “RF, LCC6MDR + DMSO” value is given as 1.0. Further, the IC50 in series [4] (setting [11]) turned out to be 37.4 ± 11.7 nM. Moreover, in [4], the “RF, LCC6 + DMSO” value was found to be 28.1.

In the case of `CC[C@@]1(O)C(=O)OCc2c1cc1n(c2=O)Cc2cc3c(CN(C)C)c(O)ccc3nc2-1` [Topotecan, topotecan], the IC50 in [8] was found to be 225 ± 32 nM.

`CC[C@]1(O)C[C@@H]2CN(CCc3c([nH]c4ccccc34)[C@@](C(=O)OC)(c3cc4c(cc3OC)N(C)[C@H]3[C@@](O)(C(=O)OC)[C@H](OC(C)=O)[C@]5(CC)C=CCN6CC[C@]43[C@@H]65)C2)C1` [Vinblastine, vinblastine]: in [1], the “RF, LCC6MDR + 1 μM FM04” value is recorded as 61.3 and the “RF, LCC6MDR + DMSO” value was determined as 1.0. Besides, in series [4] (setting [11]), the IC50 is 0.38 ± 0.14 nM. In series [4], the “RF, LCC6 + DMSO” value is reported as 24.2 and the “RF, LCC6 + 1 μM FM04” value was found to be 10.7.

Turning to `CC[C@]1(O)C[C@H]2CN(CCc3c([nH]c4ccccc34)[C@@](C(=O)OC)(c3cc4c(cc3OC)N(C=O)[C@H]3[C@@](O)(C(=O)OC)[C@H](OC(C)=O)[C@]5(CC)C=CCN6CC[C@]43[C@@H]65)C2)C1` [Vincristine, vincristine], in series [1], the “RF, LCC6MDR + 1 μM FM04” value came out at 68.0 and the “RF, LCC6MDR + DMSO” value was 1.0. Also, the IC50 in [4] (setting [11]) came to 0.71 ± 0.32 nM. In series [4], the “RF, LCC6 + DMSO” value is reported as 39.3 and the “RF, LCC6 + 1 μM FM04” value was 21.5.

Take `O=c1cc(-c2ccc(O)cc2)oc2cc(O)cc(O)c12` [apigenin]: in [1], the “RF (relative-fold)” value is 1.0. Further, the EC50 in series [9] is more than 10000 nM.

Take `O=c1cc(-c2ccc(OCCOCCOCCOCCOc3ccc(-c4cc(=O)c5ccccc5o4)cc3)cc2)oc2ccccc12` [compound 61]: in [1], the “RF (relative-fold)” value is more than 28.

In the case of `CC(C)c1nc(CN(C)C(=O)N[C@H](C(=O)N[C@@H](Cc2ccccc2)C[C@H](O)[C@H](Cc2ccccc2)NC(=O)OCc2cncs2)C(C)C)cs1` [ritonavir], the “fold enhancement of the AUC of oral PTX vs a single oral dose of PTX” value in [10] is on record as 2.5 fold.
